Tests used:
[1] = test system: E. coli S30 extract (bacterial protein synthesis); test: E. coli S30 extract coupled transcription-translation luciferase assay (inhibition of bacterial protein synthesis); assay type: biochemical; details: class by IC50 or % inhibition @ 1 μM, read-out: S30 IC50 (μM/% inhib.)
Summary of the method: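 Cell-free coupled transcription-translation in E. coli S30 circular-DNA extract, with pBESTluc plasmid as template and complete amino acid mix. Eight 2-fold compound dilutions were incubated with the extract 1 h at 37 °C, chilled, then luciferase luminescence was read. % inhibition was taken relative to no-inhibitor wells; no-DNA wells gave background.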

[2] = target: Rabbit Reticulocyte Lysate (eukaryotic protein synthesis); test: Rabbit reticulocyte lysate luciferase assay (inhibition of eukaryotic protein synthesis); assay type: biochemical; details: class by IC50 or % inhibition @ 1 μM, read-out: Rabbit reticulocyte IC50 (μM/% inhib.)
Summary of the method: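 Nuclease-treated rabbit reticulocyte lysate translating luciferase control RNA, with complete amino acids, was incubated at 30° C. for 90 minutes with 2-fold serial compound dilutions. Luminescence was measured after adding luciferase reagent. % inhibition was relative to water controls, with no-RNA wells as background.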

A. baumannii (Ab) = test: Broth microdilution minimum inhibitory concentration (MIC); assay type: cell-based; details: Acinetobacter baumannii; A. baumannii; growth medium with sodium bicarbonate; read-out: Ab + bicarb MIC
Summary of the method: (§1)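 Following CLSI M07-A9 with minor changes, growth medium was cation-adjusted Mueller-Hinton broth, alone or supplemented with bicarbonate (6.25 or 25 mM) or heat-inactivated human serum up to 50%. Each compound was tested over eight two-fold dilutions against 5×10^4 CFU per well.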

S. aureus (Sa) = test: as above; assay type: cell-based; details: Staphylococcus aureus, S. aureus; growth medium with sodium bicarbonate; read-out: Sa + bicarb MIC
Summary of the method: as §1

P. aeruginosa (Pa) = test: as above; assay type: cell-based; details: Pseudomonas aeruginosa, P. aeruginosa; growth medium with sodium bicarbonate; read-out: Pa MIC + bicarb
Summary of the method: as §1

E. faecalis (Ef) = test: as above; assay type: cell-based; details: Enterococcus faecalis, E. faecalis; growth medium with sodium bicarbonate; read-out: Ef + bicarb MIC
Summary of the method: as §1

E. coli (Ec) = test: as above; assay type: cell-based; details: Escherichia coli, E. coli; growth medium with sodium bicarbonate; read-out: E. coli + bicarb MIC
Summary of the method: as §1

| SMILES | IC50 [1] [µM] | IC50 [2] [µM] | MIC (A. baumannii (Ab)) [µg/mL] | MIC (S. aureus (Sa)) [µg/mL] | MIC (P. aeruginosa (Pa)) [µg/mL] | MIC (E. faecalis (Ef)) [µg/mL] | MIC (E. coli (Ec)) [µg/mL] |
| --- | --- | --- | --- | --- | --- | --- | --- |
| CC(C)(N)C(=O)N1CCN(C(=O)Nc2ccn(-c3ccc(CN4CC(O)(CCN)C4)cc3)c(=O)n2)CC1 [Compound 205] | < 0.5 | > 1 | > 32 | 8 to 32 | > 32 | > 32 | < 8 |
| CC(C)(N)C(=O)N1CCN(C(=O)Nc2ccn(-c3ccc(CN4CC[C@@H](N)[C@@H](F)C4)cc3)c(=O)n2)CC1 [Compound 209] | > 1 | > 1 | > 32 | > 32 | > 32 | > 32 | < 8 |
| C[C@@H]1CN(Cc2ccc(-n3ccc(NC(=O)N4CCN(C(=O)C(C)(C)N)CC4)nc3=O)cc2)CC[C@H]1N [Compound 210] | < 0.5 | > 1 | > 32 | < 8 | > 32 | < 8 | < 8 |
| C[C@H]1CN(Cc2ccc(-n3ccc(NC(=O)N4CCN(C(=O)C(C)(C)N)CC4)nc3=O)cc2)CC[C@H]1N [Compound 211] | 0.5 to 1 | > 1 | > 32 | < 8 | > 32 | 8 to 32 | < 8 |
| CC[C@H]1CN(Cc2ccc(-n3ccc(NC(=O)N4CCN(C(=O)C(C)(C)N)CC4)nc3=O)cc2)CC[C@H]1N [Compound 212] | 0.5 to 1 | > 1 | > 32 | < 8 | > 32 | < 8 | < 8 |
| C[C@@H](N)C1CCN(Cc2ccc(-n3ccc(NC(=O)N4CCN(C(=O)C(C)(C)N)CC4)nc3=O)cc2)CC1 [Compound 219] | 0.5 to 1 | > 1 | > 32 | < 8 | > 32 | 8 to 32 | < 8 |
| C[C@H](N)C1CCN(Cc2ccc(-n3ccc(NC(=O)N4CCN(C(=O)C(C)(C)N)CC4)nc3=O)cc2)CC1 [Compound 220] | < 0.5 | > 1 | 8 to 32 | < 8 | > 32 | 8 to 32 | < 8 |
| CC(C)(N)C(=O)N1CCN(C(=O)Nc2ccn(-c3ccc(CN4CC[C@@H](N)[C@H](CO)C4)cc3)c(=O)n2)CC1 [Compound 227] | > 1 | > 1 | > 32 | > 32 | > 32 | > 32 | 8 to 32 |
| CC(C)(N)CC1(F)CCN(C(=O)Nc2ccn(-c3ccc(CN4CCC(N)CC4)cc3)c(=O)n2)CC1 [Compound 233] | > 1 | > 1 | > 32 | < 8 | > 32 | > 32 | < 8 |
| CC(C)(N)C(=O)N1CCN(C(=O)Nc2ccn(-c3ccc(CN4CC[C@H](CN)C4)cc3)c(=O)n2)CC1 [Compound 242] | < 0.5 | > 1 | > 32 | < 8 | > 32 | 8 to 32 | < 8 |
| CC(C)(N)C(=O)N1CCN(C(=O)Nc2ccn(-c3ccc(CN4CC[C@@H](CN)C4)cc3)c(=O)n2)CC1 [Compound 243] | < 0.5 | > 1 | > 32 | < 8 | > 32 | 8 to 32 | < 8 |
| CC(C)(N)C(=O)N1CCN(C(=O)Nc2ccn(-c3ccc(CN4CCC(CN)CC4)cc3)c(=O)n2)CC1 [Compound 245] | < 0.5 | > 1 | > 32 | < 8 | > 32 | < 8 | < 8 |
| CC(N)C1CCN(Cc2ccc(-n3ccc(NC(=O)N4CCN(C(=O)C(C)(C)N)CC4)nc3=O)cc2)CC1 (centres unmarked) [Compound 247] | < 0.5 | > 1 | > 32 | < 8 | > 32 | < 8 | < 8 |
| CC1(CN)CCN(Cc2ccc(-n3ccc(NC(=O)N4CCN(C(=O)C(C)(C)N)CC4)nc3=O)cc2)CC1 [Compound 249] | < 0.5 | > 1 | > 32 | < 8 | > 32 | 8 to 32 | < 8 |
| CC1CN(Cc2ccc(-n3ccc(NC(=O)N4CCN(C(=O)C(C)(C)N)CC4)nc3=O)cc2)CCC1N (centres unmarked) [Compound 251] | < 0.5 | > 1 | > 32 | < 8 | > 32 | < 8 | < 8 |
| CC(C)(N)C(=O)N1CCN(C(=O)Nc2ccn(-c3ccc(CN4CCC(N)C(C)(C)C4)cc3)c(=O)n2)CC1 (centres unmarked) [Compound 254] | 0.5 to 1 | > 1 | < 8 | < 8 | > 32 | < 8 | < 8 |
| CC(C)(N)C(=O)N1CCN(C(=O)Nc2ccn(-c3ccc(CN4CC[C@@H](N)[C@H](O)C4)cc3)c(=O)n2)CC1 [Compound 268] | > 1 | > 1 | > 32 | 8 to 32 | > 32 | > 32 | 8 to 32 |
| CC(C)(N)C(=O)N1CCN(C(=O)Nc2ccn(-c3ccc(CC(=O)N4CCC(N)CC4)cc3)c(=O)n2)CC1 [Compound 269] | > 1 | > 1 | > 32 | > 32 | > 32 | > 32 | 8 to 32 |
| Cc1cc(-n2ccc(NC(=O)N3CCN(C(=O)C(C)(C)N)CC3)nc2=O)ccc1CN(CC1CC1)C1CCC(N)CC1 (centres unmarked) [Compound 270] | < 0.5 | > 1 | < 8 | < 8 | 8 to 32 | < 8 | < 8 |
| CC(C)(N)C(=O)N1CCN(C(=O)Nc2ccn(-c3ccc(CNC4CCC(N)CC4)c(Cl)c3)c(=O)n2)CC1 (centres unmarked) [Compound 271] | < 0.5 | > 1 | > 32 | < 8 | > 32 | < 8 | < 8 |
| CN(Cc1ccc(-n2ccc(NC(=O)N3CCN(C(=O)C(C)(C)N)CC3)nc2=O)cc1Cl)C1CCC(N)CC1 (centres unmarked) [Compound 272] | < 0.5 | > 1 | < 8 | < 8 | 8 to 32 | < 8 | < 8 |
| CCN(Cc1ccc(-n2ccc(NC(=O)N3CCN(C(=O)C(C)(C)N)CC3)nc2=O)cc1Cl)C1CCC(N)CC1 (centres unmarked) [Compound 273] | < 0.5 | > 1 | < 8 | < 8 | 8 to 32 | < 8 | < 8 |
| CCN(Cc1ccc(-n2ccc(NC(=O)N3CCN(C(=O)C(C)(C)N)[C@H](C)C3)nc2=O)cc1)C1CCC(N)CC1 (some centres unmarked) [Compound 274] | < 0.5 | > 1 | < 8 | < 8 | 8 to 32 | < 8 | < 8 |
| CCN(Cc1ccc(-n2ccc(NC(=O)N3CCN(C(=O)C(C)(C)N)C[C@H]3C)nc2=O)cc1)C1CCC(N)CC1 (some centres unmarked) [Compound 275] | < 0.5 | > 1 | < 8 | < 8 | 8 to 32 | < 8 | < 8 |
| CCN(Cc1ccc(-n2ccc(NC(=O)N3CCN(C(=O)C(C)(C)N)CC3)nc2=O)cc1C(F)(F)F)C1CCC(N)CC1 (centres unmarked) [Compound 276] | 0.5 to 1 | > 1 | > 32 | < 8 | > 32 | < 8 | < 8 |
| C[C@](N)(CO)C(=O)N1CCN(C(=O)Nc2ccn(-c3ccc(CN(CC4CC4)C4CCC(N)CC4)cc3)c(=O)n2)CC1 (some centres unmarked) [Compound 277] | < 0.5 | > 1 | > 32 | < 8 | > 32 | < 8 | < 8 |
| CN(Cc1ccc(-n2ccc(NC(=O)N3CCN(C(=O)C(C)(C)N)CC3)nc2=O)cc1F)C1CCC(N)CC1 (centres unmarked) [Compound 278] | < 0.5 | > 1 | 8 to 32 | < 8 | 8 to 32 | < 8 | < 8 |
| CC(Cc1ccc(-n2ccc(NC(=O)N3CCN(C(=O)C(C)(C)N)CC3)nc2=O)cc1)N(C)C[C@H]1CCC[C@H](N)C1 (some centres unmarked) [Compound 279] | > 1 | > 1 | > 32 | < 8 | > 32 | 8 to 32 | < 8 |
| CCN(C[C@H]1CCC[C@H](N)C1)C(C)Cc1ccc(-n2ccc(NC(=O)N3CCN(C(=O)C(C)(C)N)CC3)nc2=O)cc1 (some centres unmarked) [Compound 280] | 0.5 to 1 | > 1 | > 32 | < 8 | > 32 | < 8 | < 8 |

Source: patent US12503452B2 (Curza Global, LLC, priority 2019, dated 2025)
